Laboratory results published in patent US20220273690A1, “Edible Formulations Based on Active Ingredients and Arginine” (GRAAL S.R.L., priority 2019, published 2022).
≈ marks a conversion by molar mass, not a printed value.

Key:
[1] = Neutralization of an aqueous solution of SAM-e tosylate with buffering agents to pH 7; assay type: physicochemical; conditions: for Stabilization time / Initial pH: SAMe tosylate 400 mg/100 mL; for Final pH: SAMe tosylate 400 mg/100 mL after addition of the neutralizing agent; for Initial pH: before addition of the neutralizing agent; for Neutralizing agents added amount: added to SAMe tosylate 400 mg/100 mL until neutralization
Method: (§1) After measuring the pH, the solution was gradually added with buffering substance until neutralization and a pH 7 value were reached. As it can be seen from the table below (Table 9), the amount of Lysine and Potassium Citrate tribasic appear to be excessive to consider their use in commercial pharmaceutical forms. More precisely, from the table it can be noted that 15.4 g of Lysine fail to bring the SAMe solution to neutralization (the pH value remains 4).
SAMe tosilate concentration: 400 mg/100 mL

[2] = cited from earlier work
[3] = cited from earlier work; remark: listed apart in the source
[4] = Neutralization of aqueous solutions of other acid active ingredients with L-Arginine; assay type: physicochemical; conditions: aqueous solution containing 1 g of the active ingredient
Description: as §1
Based on the excellent neutralization results obtained with L-Arginine, the same method was used to analyze the amount of L-Arginine necessary to neutralize a solution including other acid active ingredients (results below): • An aqueous solution containing 1 g of N-Acetyl-Cysteine is neutralized with 1.086 g of L-Arginine • An aqueous solution containing 1 g of L-Acetyl-Carnitine is neutralized with 0.736 g of L-Arginine

Row | SMILES | Final pH [1] | Initial pH [1] | Neutralizing agents added amount [1] | pKa [2] | Solubility in water [3] | other results
1 | O=P([O-])([O-])[O-].[Na+].[Na+].[Na+] [Sodium phosphate tribasic] | 7.0 | 2.09 | 510 mg |  |  | Stabilization time [1]: <3 min
2 | O=C1O[C@H]([C@@H](O)CO)C(O)=C1O [Ascorbic Acid] |  |  |  | 4.36 |  | 
3 | CC(=O)Oc1ccccc1C(=O)O [Acetylsalicylic acid] |  |  |  |  | 1460 µg/mL (≈ 8.1 mM) | 
4 | O=C(O)CCCC[C@@H]1CCSS1 (racemic) [Lipoic acid] |  |  |  | 4.52 |  | 
5 | O=C([O-])[O-].[Na+].[Na+] [Sodium carbonate] | 7.0 | 2.10 | 200 mg |  |  | Stabilization time [1]: <3 min
6 | C[S+](CC[C@H](N)C(=O)[O-])C[C@H]1O[C@@H](n2cnc3c(N)ncnc32)[C@H](O)[C@@H]1O (stereo partly drawn) [SAMe, S-Adenosyl-l-methionine] |  |  |  | 1.7 | 1190 µg/mL (≈ 2.99 mM) | 
7 | CC(=O)O[C@H](CC(=O)[O-])C[N+](C)(C)C [L-Acetyl Carnitine] |  |  |  | 4.09 | 142000 µg/mL (≈ 699 mM) | Amount of L-Arginine needed to neutralize [4]: 0.736 g
8 | CC(=O)SC[C@H](NC(=O)CC[C@H](N)C(=O)O)C(=O)NCC(=O)O [S-acetyl-L-glutatione] |  |  |  | 1.75 |  | 
9 | N[C@@H](CCC(=O)O)C(=O)O [Glutamic acid] |  |  |  | 1.88 |  | 
10 | N[C@@H](CC(=O)O)C(=O)O [Aspartic Acid] |  |  |  | 1.7 |  | 
11 | O=C([O-])CC(O)(CC(=O)[O-])C(=O)[O-].[K+].[K+].[K+] [Potassium citrate tribasic] | 7.0 | 2.10 | 14943 mg |  |  | Stabilization time [1]: <3 min
12 | CC(=O)N[C@@H](CS)C(=O)O [N-Acetyl Cysteine] |  |  |  |  | 5090 µg/mL (≈ 31.2 mM) | Amount of L-Arginine needed to neutralize [4]: 1.086 g
13 | [O]=[Mg] [Light magnesium oxide] | 7.1 | 2.08 | 44.91 mg |  |  | 
14 | NCCCC[C@H](N)C(=O)O [Lysine] | 4 | 2.08 | 15402 mg |  |  | Amount of neutralizing agent added ([1]; SAMe solution, neutralization not reached): 15.4 g
15 | N=C(N)NCCC[C@H](N)C(=O)O [Arginine] | 7.0 | 2.08 | 375 mg |  |  | 
16 | C[N+](C)(C)C[C@H](O)CC(=O)[O-] [Levocarnitine] |  |  |  | 4.2 | 5330 µg/mL (≈ 33.1 mM) | 
17 | CC(C)(O)CC(=O)O [Hydroxy-methyl-butyrate, 3-hydroxy-3-methylbutyric acid] |  |  |  | 4.4 | 15000 µg/mL (≈ 127 mM) | 
18 | O=C([O-])O.[Na+] [Sodium bicarbonate] | 7.0 | 2.08 | 690 mg |  |  | Stabilization time [1]: <3 min
